Measured values published in US7973047B2, “Beta-Secretase modulators and methods of use” (Amgen Inc., priority 2010, dated 2011).

These molecules were tested on Aβ40 in conditioned medium of cells stably expressing Amyloid Precursor Protein (APP) (assay: BACE cell-based assay: Aβ40 in conditioned medium by sandwich ELISA). Details: cell based assay data of Table 4; unit inferred; read-out: Cell Assay.
In short: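 APP-stable cells grown 24 h in DMEM/10% FBS, then exposed to compounds for 24 h in a 10-point dose series starting at 100 or 10 μM, 0.1% DMSO final. Medium Aβ40 measured by pAb40/biotinylated 6E10 sandwich ELISA with Europium time-resolved fluorescence; IC50 from percent inhibition.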

| IC50 [µM] | SMILES |
| --- | --- |
| 0.00642 | CC(=O)N[C@@H](Cc1cc(F)cc(F)c1)[C@H](O)CN[C@H]1CC2(CCC2)Oc2nc(F)c(CC(C)(C)C)cc21 [compound 659] |
| 0.12 | CC(=O)N[C@@H](Cc1ccc(Cl)cc1)[C@H](O)CN[C@H]1CC2(CC2)Oc2ncc(CC(C)(C)C)cc21 [compound 580] |
| 1.43 | CC(=O)N[C@@H](Cc1cccc(F)c1)[C@H](O)CN[C@H]1CC2(CCC2)Oc2ncc([C@@H](F)C(C)C)cc21 [compound 555] |
| 0.0121 | CC(=O)N[C@@H](Cc1ccc(F)cc1)[C@H](O)CN[C@H]1CC2(CCC2)Oc2ncc([C@H](F)C(C)(C)C)cc21 [compound 675] |
| 0.00207 | CC(=O)N[C@@H](Cc1cccc(F)c1)[C@H](O)CN[C@H]1CC2(CCC2)Oc2ncc([C@H](F)C(C)(C)C)cc21 [compound 678] |
| 0.112 | CC(=O)N[C@@H](Cc1ccc(F)cc1)[C@H](O)CN[C@H]1CC2(CCC2)Oc2c1cc(CC(C)(C)C)nc2Cl [compound 583] |
| 0.00215 | CC(=O)N[C@@H](Cc1ccc(C)c(F)c1)[C@H](O)CN[C@H]1CC2(CCC2)Oc2ncc(CC(C)(C)C)cc21 [compound 576] |
| 0.00928 | CC(=O)N[C@@H](Cc1cc(F)c(F)cc1F)[C@H](O)CN[C@H]1CC2(CCC2)Oc2ncc(CC(C)(C)C)cc21 [compound 685] |
| 0.00425 | CCNc1cc(C[C@H](NC(C)=O)[C@H](O)CN[C@H]2CC3(CCC3)Oc3ncc(CC(C)(C)C)cc32)ccc1F [compound 710] |
| 0.161 | CC(=O)N[C@@H](Cc1cc(F)cc(F)c1)[C@H](O)CN[C@@H]1CC2(CCC2)Oc2c1cc(CC(C)(C)C)nc2OC(C)C [compound 611] |
| 0.0372 | CCCc1cnc2c(c1)[C@@H](NC[C@@H](O)[C@H](Cc1ccc(F)cc1)NC(C)=O)CC1(CCC1)O2 [compound 694] |
| 0.00156 | CC(=O)N[C@@H](Cc1cccc(F)c1)[C@H](O)CN[C@H]1CC2(CCC2)Oc2c1cc(CC(C)(C)C)nc2N [compound 605] |
| 0.00312 | CC(=O)N[C@@H](Cc1cc(F)cc(F)c1)[C@H](O)CN[C@H]1CC(C)(C)Oc2ncc(CC(C)(C)C)cc21 [compound 573] |
| 0.0184 | CC(=O)N[C@@H](Cc1ccc(F)cc1F)[C@H](O)CN[C@H]1CC2(CCC2)Oc2ncc(CC(C)(C)C)cc21 [compound 704] |

Continued, molecule first:

| SMILES | IC50 [µM] |
| --- | --- |
| CC(=O)N[C@@H](Cc1ccc(F)cc1)[C@H](O)CN[C@H]1CC2(CCC2)Oc2c1cc(CC(C)(C)C)nc2NC(C)(C)C [compound 589] | 0.615 |
| CCc1cc2c(c(N3CCOCC3)c1)OC(C)(C)C[C@@H]2NC[C@@H](O)[C@H](Cc1cccc(C#N)c1)NC(C)=O [compound 532] | 0.0112 |
| CC(=O)N[C@@H](Cc1ccc(F)cc1)[C@H](O)CN[C@@H]1c2cc(CC(C)(C)C)cnc2N2CCC[C@@H]12 [compound 683] | 0.524 |
| CC(=O)N[C@@H](Cc1cccc(F)c1)[C@H](O)CN[C@H]1CC2(CCC2)Oc2c1cc(CC(C)(C)C)nc2NC1CCOCC1 [compound 592] | 0.00324 |
| CC(=O)N[C@@H](Cc1ccccc1)[C@H](O)CN[C@H]1CC2(CCC2)Oc2ncc(CC(C)C)cc21 [compound 523] | 0.00409 |
| CC(=O)N[C@@H](Cc1ccc(Cl)cc1)[C@H](O)CN[C@H]1CC2(CCC2)Oc2c1cc(CC(C)(C)C)nc2N(C)C [compound 600] | 0.634 |
| CC(=O)N[C@@H](Cc1ccc(F)cc1)[C@H](O)CN[C@@H]1CC2(CCC2)Oc2c1cc(CC(C)(C)C)nc2OC(C)C [compound 607] | 0.0803 |
| CC(=O)N[C@@H](Cc1ccc(N(C)C)cc1)[C@H](O)CN[C@H]1CC2(CCC2)Oc2c1cc(CC(C)(C)C)nc2N(C)C [compound 599] | 0.167 |

Same assay, conditions: cell based assay data, Table 4; unit inferred; read-out: Cell Assay

| IC50 [µM] | SMILES |
| --- | --- |
| 0.0147 | CC(=O)N[C@@H](Cc1ccc(F)c(Cl)c1)[C@H](O)CN[C@H]1CC2(CCC2)Oc2ncc(CC(C)(C)F)cc21 [compound 836] |
| 0.184 | CC(=O)N[C@@H](CC1CC1)[C@H](O)CN[C@H]1CC2(CCC2)Oc2ncc(CC(C)(C)CC(F)F)cc21 [compound 724, N-((1S,2R)-1-(cyclopropylmethyl)-3-(((4′S)-6′-(4,4-difluoro-2,2-dimethylbutyl)-3′,4′-dihydrospiro[cyclobutane-1,2′-pyrano[2,3-b]pyridin]-4′-yl)amino)-2-hydroxypropyl)acetamide] |
| 0.0277 | CC(=O)N[C@@H](Cc1ccc2c(c1)OCO2)[C@H](O)CN[C@H]1CC2(CCC2)Oc2ncc(CC(C)(C)F)cc21 [compound 840] |
| 0.0133 | CC(=O)N[C@@H](Cc1cccc(C(F)(F)F)c1)[C@H](O)CN[C@H]1CC2(CCC2)Oc2ncc(CC(C)(C)F)cc21 [compound 838] |
| 0.00857 | CC(=O)N[C@@H](Cc1ccc(Cl)c(F)c1)[C@H](O)CN[C@H]1CC2(CCC2)Oc2ncc(CC(C)(C)C)cc21 [compound 720] |
| 0.0465 | CC(=O)N[C@@H](CC1CC1)[C@H](O)CN[C@H]1CC2(CCC2)Oc2ncc(CC(C)(C)C)cc21 [compound 722, N-((1S,2R)-1-(cyclopropylmethyl)-3-(((4′S)-6′-(2,2-dimethylpropyl)-3′,4′-dihydrospiro[cyclobutane-1,2′-pyrano[2,3-b]pyridin]-4′-yl)amino)-2-hydroxypropyl)acetamide] |
| 0.0121 | CCc1cnc2c(c1)[C@@H](NC[C@@H](O)[C@H](Cc1cc(F)cc(F)c1)NC(C)=O)CC1(CCC1)O2 [compound 874] |
| 0.0784 | CC(=O)N[C@@H](Cc1ccc(Cl)cc1)[C@H](O)CN[C@H]1CC2(CCC2)Oc2ncc(CC(C)(C)F)cc21 [compound 828] |
| 0.0563 | CC(=O)N[C@@H](Cc1ccc(F)c(F)c1F)[C@H](O)CN[C@H]1CC2(CCC2)Oc2ncc(CC(C)(C)C)cc21 [compound 814] |
| 0.00246 | CC(=O)N[C@@H](Cc1cccc(F)c1)[C@H](O)CN[C@H]1C[C@]2(C[C@H](C)C2)Oc2ncc(CC(C)(C)C)cc21 [compound 770, N-((1S,2R)-3-(((1s,3R,4′S)-6′-(2,2-dimethylpropyl)-3-methyl-3′,4′-dihydrospiro[cyclobutane-1,2′-pyrano[2,3-b]pyridin]-4′-yl)amino)-1-((3-fluorophenyl)methyl)-2-hydroxypropyl)acetamide] |
| 1.05 | CC(=O)N[C@@H](Cc1cc(F)cc(F)c1)[C@H](O)CN[C@H]1CC2(CCC2)Oc2ncc(-c3nccs3)cc21 [compound 748] |
| 0.286 | CCC#CC[C@H](NC(C)=O)[C@H](O)CN[C@H]1CC2(CCC2)Oc2ncc(CC(C)(C)C)cc21 [compound 742] |
| 0.0179 | CC(=O)N[C@@H](Cc1cc(F)cc(N(C)C)c1)[C@H](O)CN[C@H]1CC2(CCC2)Oc2ncc(CC(C)(C)C)cc21 [compound 759] |
| 0.0233 | CC(=O)N[C@@H](Cc1ccc(Cl)c(C(F)(F)F)c1)[C@H](O)CN[C@H]1CC2(CCC2)Oc2ncc(CC(C)(C)C)cc21 [compound 716] |
| 0.00203 | CC(=O)N[C@@H](Cc1cc(F)cc(F)c1F)[C@H](O)CN[C@H]1CC2(CCC2)Oc2ncc(CC(C)(C)C)cc21 [compound 871] |

Second part, the molecule before the results:

| SMILES | IC50 [µM] |
| --- | --- |
| CC(=O)N[C@@H](Cc1ccc(F)cc1)[C@H](O)CN[C@H]1CC(C)(C)Oc2c1cc(CC(C)(C)C)nc2Cl [compound 761] | 0.126 |
| CNc1nc(CC(C)(C)C)cc2c1OC(C)(C)C[C@@H]2NC[C@@H](O)[C@H](Cc1ccc(F)c(F)c1)NC(C)=O [compound 760] | 0.0113 |
| CC(=O)N[C@@H](Cc1ccccc1)[C@H](O)CN[C@H]1CC2(CCC2)Oc2ccc(OC(C)C)cc21 [compound 823, N-((2S,3R)-3-hydroxy-4-((S)-6-isopropoxy-2,2-spirocyclobutyl-chroman-4-ylamino)-1-phenylbutan-2-yl)acetamide] | 0.31 |
| CC(=O)N[C@@H](Cc1cc(F)cc(F)c1)[C@H](O)CN[C@H]1CC2(CCC2)Oc2cc(Br)ccc21 [compound 787] | ≥ 10 |
| CC(=O)N[C@@H](Cc1cc(F)cc(F)c1)[C@H](O)CN[C@H]1CC2(CCC2)Oc2ccc(N3CCC3=O)cc21 [compound 795] | 0.255 |
| COCC(=O)N[C@@H](Cc1cccc(C#N)c1)[C@H](O)CN[C@H]1CC2(CCC2)Oc2ccc(C(=O)OC)cc21 [compound 730] | 1.02 |
| CC(=O)N[C@@H](Cc1ccccc1)[C@H](O)CN[C@H]1CC2(CCC2)Oc2ccc(-c3cccs3)cc21 [compound 778] | 0.0833 |
| CCC(=O)N[C@@H](Cc1cc(F)cc(Cl)c1)[C@H](O)CN[C@H]1CC(C)(C)Oc2cnc(CC(C)(C)C)cc21 [compound 797] | 0.0113 |
| CC(=O)Nc1ccc2c(c1)[C@@H](NC[C@@H](O)[C@H](Cc1cc(F)cc(F)c1)NC(C)=O)CC1(CCC1)O2 [compound 789] | 0.0177 |
| CC(=O)N[C@@H](Cc1ccccc1)[C@H](O)CN[C@H]1CC2(CCC2)Oc2ncc(C(O)C(C)C(F)(F)F)cc21 (some centres unmarked) [compound 865] | 1.93 |
| CC(=O)N[C@@H](Cc1cc(F)cc(F)c1)[C@@H](O)CN[C@H]1CC2(CCC2)Oc2ccc(-n3cccn3)cc21 [compound 781] | 1.16 |
| CN(C)CC(=O)N[C@@H](Cc1cccc(C#N)c1)[C@H](O)CN[C@H]1CC2(CCC2)Oc2ccc(Br)cc21 [compound 727] | 0.3 |
| CC(=O)N[C@@H](Cc1ccccc1)[C@H](O)CN[C@H]1CC(C)(C)Oc2cnc(CC(C)(C)C)cc21 [compound 794] | 0.0348 |
| Cc1nccn1CC(=O)N[C@@H](Cc1ccccc1)[C@H](O)CN[C@H]1CC2(CCC2)Oc2ccc(CC(C)(C)C)cc21 [compound 744, N-((1S,2R)-3-(((4S)-6-(2,2-dimethylpropyl)-3,4-dihydrospiro[chromene-2,1′-cyclobutan]-4-yl)amino)-2-hydroxy-1-(phenylmethyl)propyl)-2-(1H-2-methyl-imidazol-1-yl) acetamide] | 0.00572 |
| CC(=O)N[C@@H](Cc1cc(F)cc(F)c1)[C@H](O)CN[C@H]1CC2(CCC2)Oc2c1cc(Cl)cc2-n1cccn1 [compound 776] | 0.124 |

Same assay, conditions: cells stably expressing APP, 24 h incubation with compound, Aβ40 in supernatant by sandwich ELISA; read-out: IC50 values in the cell-based assay (inhibition or reduction of Aβ40)

| IC50 [µM] | SMILES |
| --- | --- |
| ≤ 5 | CCc1ccc2c(c1)[C@@H](NC[C@@H](O)[C@H](Cc1cccc(Br)c1)NC(=O)CCCCCCNC(=O)OCc1ccccc1)CC1(CCC1)O2 [Example 337] |
